Experimental data reported in patent US20160009752A1, “[…]-OXIMINO-AMINOALKYLETHERS AND PROCESS FOR PREPARATION THEREOF, USEFUL AS ANTIDIABETIC AND […] AGENTS” (COUNCIL OF SCIENTIFIC & INDUSTRIAL RESEARCH, priority 2013, published 2016).

System: sucrose challenged low dosed STZ-induced diabetic rats
Experiment: Sucrose challenged low dosed streptozotocin-induced diabetic rats (STZ-S)
Format: in vivo, rat
Experimental: Fasting blood glucose level of each animal was measured after 48 hours post STZ injection by Glucostrips (Roche) using Glucometer (ACCU-CHEK II; Roche Diagnostics, USA) and animals showing blood glucose level above 280 mg/dl were considered as diabetic. The diabetic rats with fasting blood glucose values varying between […] were included in this study. Animals were divided into groups consisting of five animals in each. Group one was considered as a control group, where as the other groups were termed as experimental groups. […] The test samples and standard drug (Metformin) was always prepared in the vehicle 1% gum acacia. […] Food (not water) was removed from the cages during the experimental period. […] The percent decline in AUC of the experiment group compared to sham treated control group termed as % antihyperglycaemic activity. Statistical analysis between the groups was done by employing Students t test.

Structure (SMILES): C/C(=N\OCCN1CCCCC1)[C@H]1CC[C@H]2[C@@H]3CC=C4C[C@@H](O)CC[C@]4(C)[C@H]3CC[C@]12C [Compound 14b, 3β-Hydroxy-pregna-5-en-20-one-O-(2-piperidin-1-yl-ethyl)-oxime]
- Blood glucose level, 0 min post sucrose load (100 mg/kg): 222.0 ± 7.9 mg/dL
- Blood glucose level, 30 min post sucrose load (100 mg/kg): 452.6 ± 18.2 mg/dL
- Blood glucose level, 60 min post sucrose load (100 mg/kg): 524.8 ± 11.2 mg/dL
- Blood glucose level, 90 min post sucrose load (100 mg/kg): 468.2 ± 12.6 mg/dL
- Blood glucose level, 120 min post sucrose load (100 mg/kg): 412.6 ± 5.8 mg/dL
- Blood glucose level, 180 min post sucrose load (100 mg/kg): 345.2 ± 9.2 mg/dL
- Blood glucose level, 240 min post sucrose load (100 mg/kg): 311.6 ± 3.7 mg/dL
- Blood glucose level, 300 min post sucrose load (100 mg/kg): 264.8 ± 8.7 mg/dL
- Blood glucose level, 1440 min post sucrose load (100 mg/kg): 414.8 ± 8.3 mg/dL
- % Antihyperglycemic activity STZ-S 0-5 hr (Table 2): 28.9%
- % Antihyperglycemic activity STZ-S 0-24 hr (Table 2): 25.2%
